Legend:
Nav1.8 channels = biological target: T1, Nav1.8 channels (Homo sapiens, UniProt Q9Y5Y9); experiment: Manual patch-clamp, current of stably overexpressed Nav1.8 channels (resting state voltage program); format: cell-based
T1 construct: expressed in transfected cells
Summary of the method: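 Whole-cell manual patch clamp on cells stably overexpressing Nav1.8, held at -120 mV and stepped to 0 mV for 50 ms every 20 s (resting-state protocol). Compounds were perfused in ascending concentrations, each for 5 min or until stable; block of peak current was calculated at steady state.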

[1] = Pharmacokinetic study in ICR mice; format: in vivo; conditions: male, mouse, plasma
[2] = Tissue distribution study (dorsal root ganglia) in SD rats; format: in vivo; conditions: male, rat, oral administration 10 mg/kg
Protocol: Experimental Example 5: Tissue distribution study of compounds in SD rats
Experimental animals: SD rats, male, 6-8 weeks old.
(§1) Compound preparation: 5% (final preparation volume) of DMSO was added to dissolve the test compound, and then 10% (final preparation volume) of Cremophor EL and 85% Saline were sequentially added.
Experimental design: The test compounds were administered to SD rats as a single dose via oral administration (10 mg/kg; n = 3, 3 time points). Blood samples were collected at 0.5 h, 2 h, and 6 h after oral administration, followed by sacrifice of the animals. Dorsal root ganglia were collected, rinsed with ice-cold normal saline to remove residual blood, blotted dry with absorbent paper, and stored at -70 °C for analysis.
Sample test: The concentrations of the designated compound drugs in plasma and tissues were determined by the LC-MS/MS method.

incision pain model [3] = experiment: Incision pain model in ICR mice, Von Frey test; format: in vivo; conditions: Mean + SEM, n = 10; for PWT 50% value (g) Post-surgery, Preadministration / PWT 50% value (g) Pre-surgery: 50 mg/kg group; for PWT 50% value (g) Post-surgery, Preadministration: baseline before administration; for PWT 50% value (g) Pre-surgery: baseline before surgery; for PWT 50% value (g) 0.5 h / PWT 50% value (g) 2 h / PWT 50% value (g) 4 h: 50 mg/kg single dose; for PWT 50% value (g) 0.5 h: 0.5 h after administration; for PWT 50% value (g) 2 h: 2 h after administration; for PWT 50% value (g) 4 h: 4 h after administration
Protocol: Experimental Example 6: Pharmacodynamic effect study of compounds in incision pain model in ICR mice Experimental animals: ICR mice, male, 28-35 g.
as §1
A plantar incision pain model was established in mice via surgery before the administration and test. Mice were placed in an anesthesia induction chamber and given 3%-4% isoflurane for anesthesia induction. After the anesthesia induction, a breathing mask was applied, and the isoflurane concentration was adjusted to 1%-2% to prevent the mice from suffering pain during the surgery. Each mouse was placed in a supine position, and the surgical site was disinfected with alcohol and iodophor. Under sterile conditions, a 0.5 cm longitudinal incision was made on the left hind paw surface, 0.2 cm away from the heel, extending toward the toes. The skin and fascia were incised; the plantar muscle was separated, slightly lifted, and longitudinally incised. The skin was then sutured with 5-0 sutures and disinfected.
2. Administration and test
The Von Frey test was performed once before the surgery. On the second day after animal modeling, the test was repeated, and animals meeting the baseline requirements were selected for enrollment. The animals were randomly grouped based on the 50% PWT values, with 10 animals per group. Administration was performed under a double-blind test protocol. The 50% PWT of the animals was measured separately before administration (baseline) and at 0.5 h, 2 h, and 4 h after administration, and a single dose was administered. The model control group was given normal saline, while the compound groups were given the compounds according to the administration doses in the table below.

incision pain model [4] = experiment: Incision pain model in ICR mice, Von Frey test; format: in vivo; conditions: 50 mg/kg single dose, Mean + SEM, n = 10
[5] = Tissue distribution study (dorsal root ganglia) in ICR mice; format: in vivo; conditions: male, mouse, oral administration 20 mg/kg
Protocol: Experimental Example 4: Tissue distribution study of compounds in ICR mice
Experimental animals: ICR mice, male, 6-8 weeks old.
as §1
Experimental design: The test compounds were administered to ICR mice as a single dose via oral administration (20 mg/kg; n = 3, 3 time points). Blood samples were collected at 0.25 h, 2 h, and 12 h after oral administration, followed by sacrifice of the animals. Dorsal root ganglia (DRG) were collected, rinsed with ice-cold normal saline to remove residual blood, blotted dry with absorbent paper, and stored at -70 °C for analysis.
Sample test: The concentrations of the compound drugs in dorsal root ganglia were determined by the LC-MS/MS method.

[6] = tested on: acetic acid writhing model; experiment: Mouse acetic acid writhing model; format: in vivo, ICR mice
Protocol: Experimental Example 11: Pharmacodynamic effect study of compounds in mouse acetic acid writhing model
Experimental animals: ICR mice, male, 20-24 g.
Compound preparation: 5% (final preparation volume) of DMSO was added to dissolve the test compound, and then 10% (final preparation volume) of Cremophor EL and 85% Saline were sequentially added; an appropriate amount of Etoricoxib was weighed, 5% (final preparation volume) of DMSO was added to dissolve the test compound, and then 5% (final preparation volume) of HS-15 and 90% Saline were sequentially added.
• 1. The mice were randomly grouped based on the body weight for model establishment, with 10 animals per group. A 0.8% (v/v) acetic acid solution was intraperitoneally injected at an injection volume of 10 mL/kg. • 2. Administration and test
Administration was performed 60 min before modeling. After the acetic acid solution was injected, the number of writhing responses in mice was observed. […] The number of writhing responses was observed and recorded during two intervals: 0-15 min and 15-30 min, with a total observation duration of 30 min. Inhibition rate = (number of writhing responses in control group - number of writhing responses in administration group)/number of writhing responses in control group × 100%. The model control group was given normal saline, the positive control group 1 was given etoricoxib at 20 mg/kg, the positive control group 2 was given VX-548 at 50 mg/kg, and the remaining groups were given the compounds of the present disclosure according to the administration doses in the table below.

T1 sequence (Q9Y5Y9 whole entry): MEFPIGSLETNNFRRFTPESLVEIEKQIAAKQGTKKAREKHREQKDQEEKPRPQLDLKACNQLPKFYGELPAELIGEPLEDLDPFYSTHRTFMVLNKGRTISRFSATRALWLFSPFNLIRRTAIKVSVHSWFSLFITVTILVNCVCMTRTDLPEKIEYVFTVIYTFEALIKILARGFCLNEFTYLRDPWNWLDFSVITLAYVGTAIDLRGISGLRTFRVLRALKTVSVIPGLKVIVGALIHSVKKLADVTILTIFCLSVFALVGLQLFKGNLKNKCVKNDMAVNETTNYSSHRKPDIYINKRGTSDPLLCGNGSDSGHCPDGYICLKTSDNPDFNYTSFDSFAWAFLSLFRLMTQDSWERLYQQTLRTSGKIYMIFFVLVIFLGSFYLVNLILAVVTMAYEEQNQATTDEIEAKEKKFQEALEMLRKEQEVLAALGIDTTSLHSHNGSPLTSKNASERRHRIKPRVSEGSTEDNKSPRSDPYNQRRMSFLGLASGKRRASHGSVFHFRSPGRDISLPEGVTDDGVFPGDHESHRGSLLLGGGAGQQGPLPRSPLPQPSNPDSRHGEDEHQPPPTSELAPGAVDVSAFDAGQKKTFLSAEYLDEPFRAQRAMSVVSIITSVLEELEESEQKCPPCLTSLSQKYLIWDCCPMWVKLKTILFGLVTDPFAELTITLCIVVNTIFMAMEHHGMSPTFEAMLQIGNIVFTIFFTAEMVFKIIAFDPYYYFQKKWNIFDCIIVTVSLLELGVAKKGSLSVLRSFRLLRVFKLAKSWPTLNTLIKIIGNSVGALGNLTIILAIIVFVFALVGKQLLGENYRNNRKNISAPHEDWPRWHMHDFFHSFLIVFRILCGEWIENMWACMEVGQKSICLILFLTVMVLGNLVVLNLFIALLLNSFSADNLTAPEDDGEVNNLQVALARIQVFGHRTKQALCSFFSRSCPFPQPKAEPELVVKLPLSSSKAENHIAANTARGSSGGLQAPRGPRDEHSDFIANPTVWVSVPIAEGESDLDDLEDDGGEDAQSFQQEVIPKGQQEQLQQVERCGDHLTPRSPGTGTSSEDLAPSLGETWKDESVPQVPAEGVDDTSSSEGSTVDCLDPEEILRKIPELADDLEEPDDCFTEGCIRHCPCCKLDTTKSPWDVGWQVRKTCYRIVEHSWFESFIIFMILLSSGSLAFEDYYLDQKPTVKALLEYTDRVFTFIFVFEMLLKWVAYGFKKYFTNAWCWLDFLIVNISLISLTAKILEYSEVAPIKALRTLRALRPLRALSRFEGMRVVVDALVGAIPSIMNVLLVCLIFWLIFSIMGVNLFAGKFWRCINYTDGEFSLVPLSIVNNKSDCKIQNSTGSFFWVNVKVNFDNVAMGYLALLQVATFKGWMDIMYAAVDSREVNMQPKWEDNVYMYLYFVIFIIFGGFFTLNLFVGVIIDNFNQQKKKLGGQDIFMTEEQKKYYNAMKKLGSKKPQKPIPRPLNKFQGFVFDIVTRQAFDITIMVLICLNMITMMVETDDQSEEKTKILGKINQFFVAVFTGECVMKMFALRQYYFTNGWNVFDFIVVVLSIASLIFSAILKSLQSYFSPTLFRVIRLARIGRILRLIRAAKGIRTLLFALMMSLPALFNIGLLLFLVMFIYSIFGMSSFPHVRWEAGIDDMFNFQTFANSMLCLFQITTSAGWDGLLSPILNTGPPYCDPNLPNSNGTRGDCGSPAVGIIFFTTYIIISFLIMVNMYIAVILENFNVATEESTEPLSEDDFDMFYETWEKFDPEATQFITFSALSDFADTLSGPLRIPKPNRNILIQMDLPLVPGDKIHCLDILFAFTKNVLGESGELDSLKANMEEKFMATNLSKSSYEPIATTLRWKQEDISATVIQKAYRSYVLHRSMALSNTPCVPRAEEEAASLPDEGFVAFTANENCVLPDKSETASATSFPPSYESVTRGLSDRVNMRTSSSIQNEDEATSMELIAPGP

SMILES	IC50 (Nav1.8 channels) [nM]	AUC(0-inf) ([1]; Oral administration, 10 mg/kg) [ng·h/mL]	AUC(0-inf) ([1]; iv, Injection (i.v.), 2 mg/kg) [ng·h/mL]	concentration at 0.5 h ([2]; Time 0.5 h) [ng/g]	concentration at 2 h ([2]; Time 2 h) [ng/g]	concentration at 6 h ([2]; Time 6 h) [ng/g]	PWT 50% value (g) Post-surgery, Preadministration (incision pain model [3]) [g]	PWT 50% value (g) Pre-surgery (incision pain model [3]) [g]	PWT 50% value (g) 0.5 h (incision pain model [3]) [g]	PWT 50% value (g) 2 h (incision pain model [3]) [g]	PWT 50% value (g) 4 h (incision pain model [3]) [g]	PWT 50% value (g) AUC0-8h (incision pain model [4]) [g·h]	concentration at 0.25 h [5] [ng/g]	concentration at 2 h [5] [ng/g]	concentration at 12 h [5] [ng/g]	Number of writhing responses ([6]; ICR mice, Dose 50 mg/kg, 60 min before 0.8% acetic acid i.p., 30 min observation, Mean + SD, n = 10)	inhibition of the writhing effect compared with VX-548 ([6]; mouse acetic acid writhing model)	inhibition at 0.001 µM (Nav1.8 channels; concentration of 1 nM, read-out: Inhibition rate %) [%]
COc1c([C@@H]2C[C@](C)(C(F)(F)F)SC2C(=O)Nc2ccnc([N+](=O)[O-])c2)ccc(F)c1F (stereo in doubt) [a-7-A, (2S,3S,5R)-3-(3,4-difluoro-2-methoxyphenyl)-5-methyl-N-(2-nitropyridin-4-yl)-5-(trifluoromethyl)tetrahydrothiophene-2-carboxamide]	0.15	10200	2090	115	768	557	0.27 ± 0.13	1.43 ± 0.43	0.47 ± 0.16	0.72 ± 0.35	0.47 ± 0.25	3.62 ± 1.28						
COc1c([C@@H]2C[C@](C)(C(F)(F)F)S[C@H]2C(=O)Nc2ccnc(N=[N+]=[N-])c2)ccc(F)c1F [a-20-A, (2R,3S,5R)-N-(2-azidopyridin-4-yl)-3-(3,4-difluoro-2-methoxyphenyl)-5-methyl-5-(trifluoromethyl)tetrahydrothiophene-2-carboxamide]	0.001	15400	1990				0.29 ± 0.09	1.14 ± 0.21	0.39 ± 0.14	0.49 ± 0.18	0.57 ± 0.22	3.48 ± 0.82	1040	5900	1910	17 ± 11	better than VX-548	
COc1c([C@@H]2C[C@](C)(C(F)(F)F)S[C@H]2C(=O)Nc2ccc(F)c(S(N)(=O)=O)c2)ccc(F)c1F [Compound 233-A, (2R,3S,5R)-3-(3,4-difluoro-2-methoxyphenyl)-N-(4-fluoro-3-sulfamoylphenyl)-5-methyl-5-(trifluoromethyl)tetrahydrothiophene-2-carboxamide]		34100	9490				0.22 ± 0.02	1.54 ± 0.4	0.42 ± 0.34	0.62 ± 0.32	0.41 ± 0.21	3.21 ± 1.35	400	2850	489			94.1

— EP4813993A1, “COMPOUND, PREPARATION METHOD THEREFOR, AND USE THEREOF” (Sichuan Kelun Pharmaceutical Research Institute Co., Ltd., priority 2023, dated 2025)
